Data on seven molecules can be found in patent US20140135272A1, “NOVEL ZINC FINGER-LIKE PEPTIDE COMPOSITIONS AS POTENT AGENTS IN CANCER PREVENTION AND TREATMENT” (priority 2011, published 2014).

Where a chain is given by its changes, count along the chain named. “Also recorded” adds a separate entry of the source. Square brackets hold non-standard residues; d marks the D form. Ends that are not written are not given here. pS = N[C@@H](COP(=O)(O)O)C(=O)O

Holding throughout (type): in vivo, nude mice
Data set [1] concerns malignant melanoma B 16F10. Kind of data set: Example 4: peptide variants pre-injected, then malignant melanoma B16F10 inoculation, tumor volumes and death. The note with it: peptide 2 mM, 100 μl i.v. per week for 2 weeks before B16F10 inoculation. As to the method: (§1) In the following examples, 8-week nude mice were used as host subjects to perform in vivo experiments. The nude mice were placed in room temperature and suitable humidity, and supplied with sterile water and standard food for 2 consecutive weeks before performing experiments. Then, the nude mice were injected with zinc finger-like peptide and tumor cells. The detailed processes for the experiments are described as follows.
(§2) First, manually synthesized zinc finger-like peptide (Genemed Synthesis Inc., San Antonio, Tex., USA) was resuspended in degassed purified water to obtain 1-5 mM of zinc finger-like peptide solution (100 μl). Herein, the solution for suspending the zinc finger-like peptide is not particularly limited. Preferably, the zinc finger-like peptide is resuspended in degassed purified water, in order to prevent the self-polymerization of the zinc finger-like peptide and loss its ability to inhibit tumor cell growth.
Nude mice received an intravenous injection of peptide (2 mM, 100 μl) via tail veins per week for 2 consecutive weeks, followed by inoculating malignant melanoma B 16F10 (2 million cells/100 μl PBS) at both the right and left flanks. The tumor volumes (mm^3) were observed daily during the whole experiment.
(§3) In the present experimental group, zinc finger-like peptide with sequence shown in SEQ ID NO: 1 was injected into nude mice.
In the present experimental group, zinc finger-like peptide with sequence shown in SEQ ID NO: 1, in which the fifth amino acid, serine was phosphorylated, and injected into nude mice.
In the present experimental group, zinc finger-like peptide with sequence shown in SEQ ID NO: 6 was injected into nude mice.
In the present experimental group, zinc finger-like peptide with sequence shown in SEQ ID NO: 6, in which the fourth amino acid serine was phosphorylated, and injected nude mice.
In the control group, H2O (100 μl) was injected into nude mice.

The subject of data set [2] is basal cell carcinoma (BCC) cells. In words: Example 1: peptide pre-injection, then basal cell carcinoma (BCC) cell inoculation, tumor volumes. The note with it: peptide 2 mM, 100 μl PBS i.v. tail vein per week for 3 weeks before BCC inoculation at both flanks; vs PBS control. As to the method: as §1, §2
Herein, zinc finger-like peptide with sequence shown in SEQ ID NO: 2 was injected into nude mice.
In particularly, nude mice were injected with an intravenous injection of peptide (2 mM, 100 μl phosphate-buffered saline or PBS) via tail veins per week for 3 consecutive weeks, followed by inoculating basal cell carcinoma (BCC) cells (2 million cells/100 μl PBS) at both the right and left flanks. […]

Data set [3] relates to breast carcinoma MDA-MB-435s. In words: Example 8: breast carcinoma MDA-MB-435s inoculated first, peptide treatment from the 70th day, tumor volumes. The note with it: peptide 2 mM, 100 μl per week for 4 weeks from the 70th day. As to the method: as §1, §2
In the present experimental group, zinc finger-like peptide with sequence shown in SEQ ID NO: 2 was injected subcutaneously into nude mice.
Nude mice received an injection of breast carcinoma MDA-MB-435s (2 million cells/100 μl PBS) […] at both the right and left flanks on the […] day, followed by injecting peptide (2 mM, 100 μl) per week for 4 consecutive weeks from the 70th day. The tumor volumes (mm^3) were observed daily during the whole experiment.
The process of the present control group was the same as that of the experimental group, except that the zinc finger-like peptide of the experimental group was substituted with PBS buffer (100 μl) in the present control group.

The test system of data set [4] is BCC cells. Kind of data set: Example 2: peptide pre-injection plus boost injection, BCC cell inoculation, tumor volumes. The note with it: peptide 2 mM, 100 μl i.v. per week for 3 weeks before BCC inoculation; boost per week for 3 weeks 2 months later; vs H2O control. The method, then: as §1, §2, §3
Nude mice were injected with an intravenous injection of peptide (2 mM, 100 μl PBS) via tail veins per week for 3 consecutive weeks, followed by inoculating BCC cells (2 million cells/100 μl PBS) at both the right and left flanks. 2 months later, boost injection of peptide was carried out per week for 3 consecutive weeks. […]

The test system of data set [5] is BCC cells. In words: Example 5: expression plasmid injection, then BCC cell inoculation, tumor volumes. The note with it: expression plasmid 100 μl via tail veins per week for 2 weeks before BCC inoculation; vs vector containing EGFP only. As to the method: as §1
The cDNA of zinc finger-like peptide was inserted into vector pCR3.1/CMV to form a zinc finger-like peptide expression plasmid, wherein the zinc finger-like peptide was connected to the c-terminal of EGFP.
In the present experimental group, the zinc finger-like peptide expression plasmid containing DNA sequence for expressing the zinc finger-like peptide (SEQ ID NO: 4) (100 μl) was injected into nude mice via tail veins per week for 2 consecutive weeks, to express zinc finger-like peptide. Then, BCC cells (2 million cells/100 μl medium) were inoculated into nude mice at both the right and left flanks. The tumor volumes (mm^3) were observed daily during the whole experiment.
The process of the present experimental group was the same as that of the experimental group 1, except that the DNA sequence shown in SEQ ID NO: 4 was substituted with DNA sequence shown in SEQ ID NO: 7. […]

Regarding “SEQ ID NO: 6, in which the fourth amino acid serine was phosphorylated: SEQ ID NO: 6 (RSSSCK) with the fourth amino acid serine phosphorylated (RSS[pS]CK)”, in data set [1], the “day on which the nude mice died” value came out at 35 days.

In the case of “RSSSCK [SEQ ID NO: 6, zinc finger-like peptide, called cysteine deletion]”, in data set [1], the “day on which the nude mice died” value was 31 days.

With “SEQ ID NO: 1, in which the fifth amino acid, serine was phosphorylated: SEQ ID NO: 1 (RRSSSCK) with the fifth amino acid, serine, phosphorylated (RRSS[pS]CK)”, the “day on which the nude mice died” value in data set [1] was 35 days.

With “MSSRRSSSCKYCEQDFRAHTQKNAATPFLAN [SEQ ID NO: 2, zinc finger-like peptide, manually synthesized]”, in data set [2], the “tumor growth (tumor volumes)” value is “inhibited the growth of skin cancer cell on nude mice”. Moreover, the “day from which tumor volumes were significantly increased” value in data set [3] (MDA-MB-435s inoculated first) stood at 89 days. The maximum tumor volumes in data set [3] (observed on the 100th day) stood at 1000 mm^3. The “tumor volumes reduced to” value in data set [3] (on the 113th day, after the maximum) is given as 50%. Also, the “tumor cell growth terminated compared to the control group” value in data set [3] (vs PBS control group) is 75%.

In the case of “MSSRRSSGCKYCEQD [SEQ ID NO: 5, zinc finger-like peptide with serine mutation]”, in the data set on BCC cells [4], the “tumor growth (tumor volumes)” value was “the therapeutic effect of the zinc finger-like peptide is decreased; also recorded: still has better treatment effect than H2O”.

B1: atgagcagca gaaggtcgtc ttcttgtaaa tattgtgaac aggacttccg agcacacaca cagaagaatg cggccacacc cttcctagcc aac (nucleic acid)
chain: ATGAGCAGCAGAAGGTCGTCTTCTTGTAAATATTGTGAACAGGACTTCCGAGCACACACACAGAAGAATGCGGCCACACCCTTCCTAGCCAAC
modifications: expressed or natural sequence
For the molecule B1, in the data set with BCC cells [5], the “tumor growth (tumor volumes)” value was “the growth of tumor cells can be inhibited and the volume thereof can be reduced”.

B2: atgagcagca gaaggtcgtc tggctgtaaa tattgtgaac aggacttccg agcacacaca cagaagaatg cggccacacc cttcctagcc aac (nucleic acid)
chain: B1 chain with T22G, C23G, T24C
modifications: chemistry not given here
Regarding B2, the “tumor growth (tumor volumes)” value with BCC cells [5] is reported as “can slightly inhibit the growth of the tumor cells”.
